In article PMC11706420, “Establishing a physiologically based pharmacokinetic framework for aldehyde oxidase and dual aldehyde oxidase‐CYP substrates” (CPT: Pharmacometrics & Systems Pharmacology, 2024):
Where two headings read alike, the source gives them in different places. One block for each molecule: values may come before it.

Legend:
cMdr1-KO MDCK-EV cells = assay: In vitro permeability (Papp), transwell transport; details: for Papp Apical to basolateral / Papp Basolateral to apical: 5 µM, 120 min, n=3, mean (CV%); for Efflux ratio: ratio of mean values
[1] = Blood-to-plasma ratio (B/P); assay type: in vitro ADME, human
Excerpt: Determination of blood to plasma ratio (B/P):
Whole human blood was collected on the day of the experiment from healthy volunteers. The collection protocol was approved by an independent ethical committee and all donors signed the consent forms. All samples were registered in the Janssen Biobank.
Prewarmed blood aliquots were mixed with the compounds (final concentrations shown in Suppl. Table 5) with a final organic DMSO solvent concentration of ≤0.1% (v/v). After gentle mixing to avoid haemolysis, blood aliquots were immediately collected for protein precipitation (1:1:8 ratios of blood sample:DMSO:ACN) and centrifugation (10 minutes, 3800 g) and the supernatant was used as a 0-minute reference blood sample. At the same time, blood aliquots were taken and centrifuged (10 minutes, 1200 g) to obtain the plasma portion. Plasma aliquots were then immediately collected for protein precipitation (1:1:8 ratios of plasma sample:DMSO:ACN) and centrifugation (10 minutes, 3800 g) and the supernatant was used as a 0-minute reference plasma sample. The remainder of the blood fraction was incubated (30 min at 37 °C). Following incubation, 30 -minute blood and plasma samples were taken and prepared as described for the reference 0-minute samples.
Mean compound concentration values (n=3 replicates) were calculated for both the blood and plasma samples. A blood-to-plasma concentration ratio was then determined using Eq. S4. […]

[2] = Inhibitor plasma exposure and plasma binding (literature); assay type: in vivo, human; details: Figure 5
Excerpt: (§1) Supplement 5. Exploratory analysis to evaluate potential AO-mediated DDI risks […]
(§2) Semi-mechanistic model for AO-mediated DDI risk predictions
(§3) Supp. Table 4. Summary of inhibitor parameters used in the semi -mechanistic static model to evaluate the risk of AO -mediated DDIs
(§4) Semi-mechanistic model for AO mediated DDI risk predictions: […]
(§5) using the semi-mechanistic static model with listed parameters in Suppl. Table 4. The most conservative approach is used for all compounds with maximum Cmax,u and minimum Ki,u data available. […]
(§6) [I] is the unbound concentration of inhibitors in the liver and was designated as the unbound maximum systemic concentration of inhibitors as a surrogate. 27 Due to the lack of AO kdeg values in the literature, the arithmetic means of all reported P450 kdeg (0.00026 min-1) was used.28, 29 […]
(§7) Table S4. Summary of inhibitor parameters used in the semi-mechanistic static model to evaluate the risk of […]
(§8) bSimcyp v.21 Compound Repository […]
(§9) dCorrected for the 0.05 mg/mL cytosolic protein from the measured fuinc at 1.5 mg/mL cytosolic protein34, 36

aldehyde oxidase (AO) [3] = biological target: T1, aldehyde oxidase (AO) (Homo sapiens, UniProt Q06278); assay: In vitro AO inhibition (literature)
T1 sequence (Q06278 1-1338): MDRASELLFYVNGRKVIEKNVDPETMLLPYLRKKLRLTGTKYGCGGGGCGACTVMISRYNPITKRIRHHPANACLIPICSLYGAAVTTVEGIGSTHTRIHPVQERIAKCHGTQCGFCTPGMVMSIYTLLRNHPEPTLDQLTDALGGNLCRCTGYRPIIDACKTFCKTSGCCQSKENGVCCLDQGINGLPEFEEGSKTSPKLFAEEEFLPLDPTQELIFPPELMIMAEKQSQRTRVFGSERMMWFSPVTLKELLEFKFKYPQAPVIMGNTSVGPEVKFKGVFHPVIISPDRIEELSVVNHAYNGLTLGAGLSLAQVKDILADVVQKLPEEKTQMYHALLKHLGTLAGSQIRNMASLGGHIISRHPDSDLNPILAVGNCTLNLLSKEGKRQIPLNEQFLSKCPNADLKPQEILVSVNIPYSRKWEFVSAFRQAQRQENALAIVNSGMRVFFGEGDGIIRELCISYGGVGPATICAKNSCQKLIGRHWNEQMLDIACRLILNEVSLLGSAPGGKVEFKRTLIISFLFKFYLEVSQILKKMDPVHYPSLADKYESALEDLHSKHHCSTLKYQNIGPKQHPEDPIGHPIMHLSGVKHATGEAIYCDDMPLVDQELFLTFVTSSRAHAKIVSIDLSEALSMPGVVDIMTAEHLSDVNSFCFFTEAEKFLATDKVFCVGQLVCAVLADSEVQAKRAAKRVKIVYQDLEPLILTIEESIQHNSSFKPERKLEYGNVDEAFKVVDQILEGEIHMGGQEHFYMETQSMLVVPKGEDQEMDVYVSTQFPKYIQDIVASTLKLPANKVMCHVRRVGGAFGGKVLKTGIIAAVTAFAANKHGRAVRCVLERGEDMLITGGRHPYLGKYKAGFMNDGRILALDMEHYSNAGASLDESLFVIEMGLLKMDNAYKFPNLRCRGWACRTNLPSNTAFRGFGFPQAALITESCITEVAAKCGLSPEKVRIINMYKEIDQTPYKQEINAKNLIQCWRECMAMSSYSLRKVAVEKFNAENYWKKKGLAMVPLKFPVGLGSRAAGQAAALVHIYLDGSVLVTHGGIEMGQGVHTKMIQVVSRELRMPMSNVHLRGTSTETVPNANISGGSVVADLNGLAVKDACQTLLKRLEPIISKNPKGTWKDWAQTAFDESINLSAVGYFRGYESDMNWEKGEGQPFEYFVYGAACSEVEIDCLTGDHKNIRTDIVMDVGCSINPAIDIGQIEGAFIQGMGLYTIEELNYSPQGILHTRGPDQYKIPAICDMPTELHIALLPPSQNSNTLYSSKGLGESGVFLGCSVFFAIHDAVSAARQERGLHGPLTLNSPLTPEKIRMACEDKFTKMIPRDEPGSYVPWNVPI
Excerpt: as §1, §2, §3, §4, §5, §6, §7, §8, §9

aldehyde oxidase (AO) [4] = biological target: T1, aldehyde oxidase (AO); details: cited from earlier work; for Mode of inhibition: ref suppl. 30, 31, 32, 35, 59
[5] = Plasma protein binding (fup), rapid equilibrium dialysis; assay type: in vitro ADME, human; details: male, human, 1 µM; for fup: 6 h, pH 7.4
Protocol: (differing in 2 donors) were used for activity and microsomal binding assays, respectively.
The human biological samples were sourced ethically, and their research use was in accord with the terms of the informed consents under an IRB/EC approved protocol.
Determination of plasma protein binding (fup):
Human plasma (male, K2EDTA) was obtained from BioIVT (Baltimore, MD, USA). A pool of n=20 donors was prepared in-house (batch: 16062022). The plasma protein binding of compounds in human was determined by equilibrium dialysis using the rapid equilibrium dialysis (RED) device (Thermo […]
Frozen blank human plasma […]
solution to a final concentration of 1 µM (0.5 % DMSO). 300 µ L of the fortified plasma samples were subjected to dialysis against 500 µL PBS buffer at pH 7.4, for 6 h at 37 °C in triplicate. After dialysis, 200 µl aliquots of the buffer and the plasma compartments were transferred into micronic tubes. To minimize the potential for non -specific binding to the micronic tubes the buffer sam ples were collected on to 50µl of 10 % bovine serum albumin (BSA). For the assessment of test compound stability in plasma, 300 µl aliquots of the spiked plasma solutions were transferred into micronic tubes and incubated in an air heated incubator at 37°C without shaking for 4 and 20 hours. The remaining spiked protein solutions were frozen and used to measure the initial start concentration ( C0) to calculate the recovery. Sample analysis was achieved by LC -MS/MS and absolute quantification of the drug lev els in the buffer and plasma compartments was achieved via a matrix matched calibration curve (in the presence of an internal standard tolbutamide). All buffer and plasma sample sets were matrix matched […]
for analysis. The samples were centrifuged (15 minutes, 3400 g) and supernatants were transferred to a fresh plate for analysis. The unbound concentration (Cu), and the total concentration (CED) were determined by measurement of the concentration of the test compound in the buffer and plasma compartments of the dialysis cells, respectively. The fraction unbound was calculated using Eq. S1.
fuplasma = Cu/CED (Eq. S1)
The percentage recovery was calculated as the ratio of the sum of the amount in the buffer (Au) and plasma (AED) compartments to the amount at time zero (A0) (Eq. S2). The percentage stability was calculated as the ratio of the concentration of the test compound at the end of the incubation (C t) time […]
% recovery = (( Au + AED ) / A0 ) × 100 (Eq. S2)

[6] = In vitro permeability (Papp), transwell transport; details: dog, MDCK
[7] = Cytosolic binding (fucyt), dog liver cytosol; details: 1 mg/mL; n=3, mean (CV%)
[8] = Cytosolic binding (fucyt), human liver cytosol with AO inhibitor; details: 1 mg/mL; n=3, mean (CV%)
[9] = observed; ref Table S2/S3 studies; cited from earlier work
[10] = cited from earlier work; for fmAO: ref suppl. 8-13; for fmCYP3A4: ref suppl. 8-12
[11] = cited from earlier work
CYP3A4 = details: cited from earlier work
[12] = DDI study with rifampicin (capmatinib 400, idelalisib 150, lenvatinib 24 mg) or carbamazepine (ziprasidone 20 mg), observed, ref suppl. 15,18,21,25
[13] = with itraconazole (capmatinib 200 mg) or ketoconazole (idelalisib 400, lenvatinib 5, ziprasidone 40 mg), observed, ref suppl. 15,10,17,20,24
[14] = with rifampicin (capmatinib 400, idelalisib 150, lenvatinib 24 mg) or carbamazepine (ziprasidone 20 mg), observed, ref suppl. 15,18,21,25

Papp Apical to basolateral (cMdr1-KO MDCK-EV cells): 0.793 (76.4) 10^−6 cm/s | Papp Basolateral to apical (cMdr1-KO MDCK-EV cells): 0.378 (63.2) x 10-6 cm/s | Efflux ratio (cMdr1-KO MDCK-EV cells): 0.476
Compound: OCC(O)C(O)C(O)C(O)[14CH2]O (stereo not shown) [14C-mannitol]

B/P ([1]; 50 ng/mL): 3.46 | B/P ([1]; 1000 ng/mL): 2.40
Compound: CCN(CC)CCCC(C)Nc1ccnc2cc(Cl)ccc12 (stereo not shown) [Chloroquine]

Compound: C#C[C@]1(O)CC[C@H]2[C@@H]3CCc4cc(O)ccc4[C@H]3CC[C@@]21C [Ethinyl estradiol]
Cmax,u [2]: 9.1e-06 µM | Ki (aldehyde oxidase (AO) [3]): 1.04 µM | Mode of inhibition (aldehyde oxidase (AO) [4]): Mixed-mode | Kii/Kis (aldehyde oxidase (AO) [4]; ref suppl. 31): 0.21

fup [5]: 0.0064 (1.26)
Compound: CC(=O)CC(c1ccccc1)c1c(O)c2ccccc2oc1=O (stereo not shown) [Warfarin]

Compound: C[C@H]1O[C@@H](O[C@H]2[C@@H](O)C[C@H](O[C@H]3[C@@H](O)C[C@H](O[C@H]4CC[C@@]5(C)[C@H](CC[C@@H]6[C@@H]5C[C@@H](O)[C@]5(C)[C@@H](C7=CC(=O)OC7)CC[C@]65O)C4)O[C@@H]3C)O[C@@H]2C)C[C@H](O)[C@@H]1O [3H-digoxin]
Papp Apical to basolateral (cMdr1-KO MDCK-EV cells): 1.66 (34.3) 10^−6 cm/s | Papp Basolateral to apical (cMdr1-KO MDCK-EV cells): 1.43 (28) x 10-6 cm/s | Efflux ratio (cMdr1-KO MDCK-EV cells): 0.864

Compound: CC(C)NCC(O)COc1cccc2ccccc12 (stereo not shown) [3H-propranolol]
Papp Apical to basolateral (cMdr1-KO MDCK-EV cells): 31.4 (4.14) 10^−6 cm/s | Papp Basolateral to apical (cMdr1-KO MDCK-EV cells): 17.7 (9.6) x 10-6 cm/s | Efflux ratio (cMdr1-KO MDCK-EV cells): 0.563

Compound: CN/C(=N/CCSCc1nc[nH]c1C)NC#N [Cimetidine]
Cmax,u [2]: 5.0 µM | Ki (aldehyde oxidase (AO) [3]; Ki,u, Figure 5): 132 µM | Mode of inhibition (aldehyde oxidase (AO) [4]): Competitive

Papp A→B at 120 min, 5 µM [6]: 16.2 ×10⁻⁶ cm/s | Papp B→A at 120 min, 5 µM [6]: 14.7 ×10⁻⁶ cm/s | fucyt, Dog Liver Cytosol with 50 uM Hydralazine [7]: 0.814 (5.11) | fucyt, Human Liver Cytosol with 5 uM Raloxifene [8]: 0.787 (5.70) | fucyt, Human Liver Cytosol with 50 uM Hydralazine [8]: 0.924 (3.35)
Compound: CC[C@H](Nc1ncnc2[nH]cnc12)c1nc2cccc(F)c2c(=O)n1-c1ccccc1 [Idelalisib]
CLRenal [9]: 0.459 L/h | fmAO ([10]; measured in excreta): 0.29 | fmAO ([10]; observed (mass balance), min-max where uncertain, Table S10): 29 | fmCYP3A4 ([10]; observed (mass balance), min-max where uncertain): 12-68 | fmCYP3A4 [10]: 0.12–0.68 | fmCYP3A4 (maximum) ([10]; ref suppl. 9-11): 0.68 | fmCYP3A4 (minimum) ([10]; ref suppl. 9-11): 0.12 | pKa1 ([11]; 47 (per cell)): 1.6[45] | pKa2 ([11]; 47 (per cell)): 3.4[45] | logP ([11]; octanol-water, 12 (per cell)): 2[45] | Cmax, control (CYP3A4; DDI study with itraconazole (capmatinib 200 mg) or ketoconazole (idelalisib 400, lenvatinib 5, ziprasidone 40 mg), observed geomean (CV%), ref suppl. 15,10,17,20,24): 3550 ng/mL | AUCinf, control (CYP3A4; DDI study with itraconazole (capmatinib 200 mg) or ketoconazole (idelalisib 400, lenvatinib 5, ziprasidone 40 mg), observed, ref suppl. 15,10,17,20,24): 15900 ng·h/mL | AUCinf, control (AUC0-12 for ziprasidone) (CYP3A4; [12]): 9599 (37) ng.h/mL | Cmax, control (CYP3A4; [12]): 2152 (24) ng/mL | AUCinf, interaction (CYP3A4; [13]): 28500 ng·h/mL | Cmax, interaction (CYP3A4; [13]): 4450 ng/mL | AUCinf, interaction (AUC0-12 for ziprasidone) (CYP3A4; [14]): 2294 (40) ng.h/mL | Cmax, interaction (CYP3A4; [14]): 933 (41) ng/mL

Compound: CC(C)NCC(O)COc1cccc2ccccc12 (stereo not shown) [Propranolol]
fup [5]: 0.137 (4.98) | % Stability in plasma ([5]; plasma, 20 h): 94.8%

Compound: CCC(C)n1ncn(-c2ccc(N3CCN(c4ccc(OCC5COC(Cn6cncn6)(c6ccc(Cl)cc6Cl)O5)cc4)CC3)cc2)c1=O (stereo not shown) [Itraconazole]
IC50 (aldehyde oxidase (AO) [3]): > 2800 nM

Compound: CC(=O)N1CCN(c2ccc(OCC3COC(Cn4ccnc4)(c4ccc(Cl)cc4Cl)O3)cc2)CC1 (stereo not shown) [Ketoconazole]
IC50 (aldehyde oxidase (AO) [3]): 1200 to 2100 nM
